# Patent US12686853B2, “Methods and compositions for treatment of muscle disease with iPSC-induced human skeletal muscle stem cells” (UNIVERSITY OF MASSACHUSETTS, priority 2020, dated 2026)
# “Also recorded” adds a separate entry of the source.
# Tests used:
# Format in all cases: cell-based, human
# DUX4 [1] = assay: 24 hr 5-AzaC pulse of FSHD iPM (S2 cells), qPCR of MBD3L2 and MYH8 RNA
# Experimental: (§1) FIG. 11E: qPCR assays of the expression of DUX4 target gene (MBD3L2) RNA and a muscle gene (MYH8) RNA of S2 cells (top panel) and iMyoblasts (bottom panel) following 24 hr treatment with increasing doses of 5-AzaC. 5-AzaC-treated S2 cultures were cultured for 6 days of S2 growth medium (GM) and 7 days in S3 differentiation medium (DM). 5-AzaC-treated iMyoblasts were cultured for 6 days in myoblast growth medium (GM) and 4 days in Opti-MEM differentiation medium. qPCR data were normalized to RPL13A and relative expression is shown normalized to […].
# To investigate epigenetic mechanisms responsible for DUX4 repression during reprogramming and iPM induction, a blinded screen was conducted to identify epigenetic drugs that activate DUX4 in FSHD iPM undergoing myogenesis.
# iPMs were treated for 24 hr with a pulse of epigenetic drugs, followed by culturing for 7 days in iPM growth medium and 7 days of iPMC differentiation medium. The cultured iPMs were then subjected to qPCR analysis to determine the expression of MBD3L2 RNA (a DUX4 biomarker) and MYH8 RNA (a muscle differentiation marker data now shown). […] See, FIG. 11D. […]
# For quantification of housekeeping genes, DUX4 biomarker or muscle differentiation marker expression, 20 ng of cDNA was used for each reaction. For quantification of DUX4 expression, 90-150 ng of cDNA was used in each reaction.
# DUX4 [2] = assay: 5-AzaC treatment of FSHD ESC iPMs; conditions: data not shown
# Experimental: iPMs were treated for 24 hr with a pulse of epigenetic drugs, followed by culturing for 7 days in iPM growth medium and 7 days of iPMC differentiation medium. The cultured iPMs were then subjected to qPCR analysis to determine the expression of MBD3L2 RNA (a DUX4 biomarker) and MYH8 RNA (a muscle differentiation marker data now shown). […] See, FIG. 11D. […] et al., (2015). […] See, FIG. 11D.
# DUX4 [3] = assay: 5-AzaC treatment of proliferating iMyoblasts, qPCR in myotubes; conditions: lower concentrations
# Experimental: as §1
# iPMs were treated for 24 hr with a pulse of epigenetic drugs, followed by culturing for 7 days in iPM growth medium and 7 days of iPMC differentiation medium. The cultured iPMs were then subjected to qPCR analysis to determine the expression of MBD3L2 RNA (a DUX4 biomarker) and MYH8 RNA (a muscle differentiation marker data now shown). […] See, FIG. 11D. At high 5-AzaC concentrations, MYH8 RNA expression decreased. […] Rickard et al., (2015). […] See, FIG. 11D.
# Ribonucleic acid (RNA) was isolated either from cells in culture or from xenoengrafted TA muscles using the RNeasy® Plus Mini Kit (Qiagen) or Aurum® Total RNA Fatty and Fibrous Tissue kit (Bio-Rad) respectively per the manufacturer's specifications. […]
# genome = assay: Genome-wide methylome analysis using Illumina chip assays after 5-AzaC treatment; conditions: data not shown
# DUX4 target gene = assay: Losmapimod treatment of FSHD1 iMyotubes, NanoString digital RNA assays; set-up: dose or concentration left out as unconfirmed; conditions: Pre- or Post-differentiation treatment with Losmapimod, N2 medium
# Description: FIG. 21A: Schematic of Losmapimod treatment protocols for Pre-drug administration at the initiation of iMyotube differentiation and at Post iMyotube differentiation after 4 days in N2 differentiation medium. FIG. 21B: NanoString digital RNA assays of DUX4 target gene and muscle gene expression in carrier treated (UT) FSHID1 iMyoblasts and in iMyotube cultures Pre- or Post-differentiation treatment with […] Losmapimod. Normalized counts of expression are presented on linear scale with each dot corresponding to an individual culture. Data are presented as mean±SEM for each condition. For NanoString RNA quantification, 50 ng or 150 ng of total RNA was used for cell culture and xenografted TA muscle, respectively. A muscle NanoString panel was constructed with human specific probes for muscle protein genes, muscle master regulatory genes, developmental transcription factors, signaling genes and multiple housekeeping genes and used for all analysis on an nCounter SprintR profiler (NanoString Technologies, Seattle, WA). Raw mRNA counts were normalized to a series of housekeeping genes (e.g., RPL13A, GAPDH, GUUSB, and VCP) using nSolverR software (NanoString Technologies, Seattle, WA).
SMILES,"DUX4 expression, as assayed by MBD3L2 RNA biomarker expression (DUX4 [1]; 24 hr pulse, then 7 days iPM growth medium and 7 days iPMC differentiation medium, qPCR)",MYH8 RNA expression (DUX4 [1]; high 5-AzaC concentrations),DUX4 expression (DUX4 [2]),DUX4 biomarker expression in myotubes (DUX4 [3]),"demethylation, genome-wide methylome analysis (genome)",DUX4 target gene expression (DUX4 target gene)
"Nc1ncn([C@@H]2O[C@H](CO)[C@@H](O)[C@H]2O)c(=O)n1 [5-AzaC, 5-azacytidine]",effectively increased DUX4 expression in a concentration dependent manner; also recorded: can be reversed,decreased,high levels of DUX4 expression,only a small increase,selective demethylation of many sequences throughout the genome,
Cc1c(F)cc(C(=O)NC2CC2)cc1-c1ccc(C(=O)NCC(C)(C)C)cn1 [Losmapimod],,,,,,decreases; also recorded: inhibited
